Data from patent US8252811B2, “Indazoles, benzothiazoles, and benzoisothiazoles, and preparation and uses thereof” (Memory Pharmaceuticals Corporation, priority 2002, dated 2012).

melting point | SMILES
170 to 180 °C | Cl.O=C(N[C@H]1CN2CCC1CC2)c1ccc2scnc2c1
166 to 176 °C | Cl.O=C(N[C@@H]1CN2CCC1CC2)c1ccc2scnc2c1
285 °C (dec.) | Cl.O=C(N[C@H]1CN2CCC1CC2)c1ccc2ncsc2c1
180 to 188 °C | Cl.O=C(N[C@@H]1CN2CCC1CC2)c1cccc2cn[nH]c12
